Reference: ChEMBL document CHEMBL3861948 (Medchemcomm, 2016)

Target: Mitogen-activated protein kinase 14 (Homo sapiens, UniProt Q16539)
Assay: Inhibition of p38alpha in human THP1 cells assessed as suppression of LPS-induced TNFalpha secretion preincubated for 30 mins followed by LPS challenge measured after 2 hrs
Type: cell-based, THP-1

Chain of Mitogen-activated protein kinase 14 (Q16539 whole entry): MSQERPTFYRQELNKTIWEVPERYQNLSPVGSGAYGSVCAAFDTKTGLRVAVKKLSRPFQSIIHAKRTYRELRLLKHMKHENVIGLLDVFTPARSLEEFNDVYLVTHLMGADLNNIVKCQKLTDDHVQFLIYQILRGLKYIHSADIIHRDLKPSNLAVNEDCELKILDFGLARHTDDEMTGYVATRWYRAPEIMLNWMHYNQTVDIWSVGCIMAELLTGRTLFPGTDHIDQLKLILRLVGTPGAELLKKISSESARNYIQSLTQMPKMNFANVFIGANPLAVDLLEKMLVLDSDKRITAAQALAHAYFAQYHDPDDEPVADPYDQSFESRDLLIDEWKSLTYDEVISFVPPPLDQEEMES

IC50	SMILES
46 nM	CNC(=O)[C@H](Cc1cccc(C(F)(F)F)c1)NC(=O)c1ccc(CNC(=O)c2cnn(-c3ccccc3)c2N)cc1
44 nM	NC(=O)[C@H](CCC1CCCCC1)NC(=O)[C@H]1CC[C@H](CNC(=O)c2cnn(-c3ccccc3)c2N)CC1
